Assay results from ChEMBL document CHEMBL1140499, “Novel heparin/heparan sulfate mimics as inhibitors of HGF/SF-induced MET activation” (2007).
Calls of active or inactive are those of the source. The rule behind the calls is not given here.

Experiments:
[1] = organism: Cricetulus griseus; assay: Inhibition of FGF2-induced FGF receptor activation assessed as ERK activation at 100 ug/mL by Western blot
[2] = organism: Cricetulus griseus; assay: Inhibition of HGF/SF-induced MET receptor activation assessed as ERK activation at 100 ug/mL by Western blot
[3] = tested on: MDCK; assay: Inhibition of HGF/SF-induced migration of MDCK cells at 100 ug/mL after 4 hrs; format: functional; conditions: Canis lupus familiaris

Activity [1] | Activity [2] | Structure (SMILES) | inhibition at 100 µg/mL [3]
inactive | Active | O=C(O)c1cc(OC[C@@H](COS(=O)(=O)O)OS(=O)(=O)O)ccc1OCCCCOS(=O)(=O)O | 70%
inactive | Active | O=C(O)c1cc(OC[C@@H](COS(=O)(=O)O)OS(=O)(=O)O)ccc1OC[C@H](COS(=O)(=O)O)OS(=O)(=O)O | 57%
